“And” between values parts separate entries of the source, which are not always exact repeats. Identical values can stand only once. Like-named read-outs stand apart in the source and are kept apart here.
Experiments:
CYPs 3A, 1A and 2C9 = test system: CYPs 3A, 1A and 2C9; design: method as in Investigator Brochure; settings: protocol background; ref Investigator Brochure; cited from earlier work
[1] = test system: non-small cell lung cancer; design: method as in SCART protocol 7.3.1; settings: selumetinib 75mg bd + docetaxol 75mg/m2 iv day 1 every 21 days (combination arm) or chemotherapy alone arm; ref SCART protocol 7.3.1; cited from earlier work
[2] = format: in vivo; settings: trough plasma, individual patients
Procedure: Peripheral blood w ill be sent to Lab21 for anti-retroviral drug levels on Cycle 1 D ay 1 Pre-
treatment, Cycle 1 Day 15 and Cycle 4 D ay 22/Cycle 5 Day 1. […]
• 5mls of venous blood should be collected into a K2- ED TA BD vacutainer
• Samples should be inverted several times to ensure adequate mix ing. […]
• Samples should be stored at - 200C. […]
Ant i-retroviral drug lev els
• Samples to be collected Cycle 1 Day 1 Pre- treatment and Cycle 1 Day 15 and Cycle 4 Day […]
• 2x 1000 µl of plasma should be aliquoted to 1.5 ml plastic screw top tubes.
• Samples should be stored at - 200C (or below) for 24 hours befor e sending. […]
Therapeutic drug monitoring of the cART therapies was undertaken by Lab 21 Ltd (Cambridge, UK). Blood plasma was prepared from 5 ml of venous blood collected in K2-EDTA BD vacutainer tubes from kits provided by Covance. Samples were centrifuged at 2000 g for 20 minutes at room temperature, frozen at sites, packed in dry ice and sent to Lab 21 Ltd (Cambridge, UK) where they were stored at -20°C prior to analysis.

Kaposi's sarcoma = test system: Kaposi's sarcoma; design: method as in Tulpule, et al. 2002; settings: 100mg/m2 q 2 weeks, second-line; ref Tulpule, et al. 2002; cited from earlier work
[3] = format: in vivo; settings: trough plasma, Cycle 5 Day 15, individual patient
[4] = Cycle 1 Day 1 (pre-selumetinib), selumetinib starting dose 50 mg bd
[5] = Cycle 1 Day 1 (pre-selumetinib), selumetinib starting dose 75 mg bd
[6] = Cycle 1 Day 15, selumetinib starting dose 50 mg bd
[7] = Cycle 1 Day 15, selumetinib starting dose 75 mg bd
[8] = Cycle 5 Day 1, selumetinib starting dose 50 mg bd
[9] = Cycle 5 Day 1, selumetinib starting dose 75 mg bd

Cn1cnc2c(F)c(Nc3ccc(Br)cc3Cl)c(C(=O)NOCCO)cc21 [AZD6244]
induction of CYPs 3A, 1A and 2C9 (CYPs 3A, 1A and 2C9): weak

CC(=O)O[C@@]12CO[C@@H]1C[C@H](O)[C@@]1(C)C(=O)[C@H](O)C3=C(C)[C@@H](OC(=O)[C@H](O)[C@@H](NC(=O)OC(C)(C)C)c4ccccc4)C[C@@](O)([C@@H](OC(=O)c4ccccc4)[C@H]21)C3(C)C [docetaxol]
febrile neutropenia, patients [1]: 0/42

CC(C)c1nc(CN(C)C(=O)N[C@H](C(=O)N[C@@H](Cc2ccccc2)C[C@H](O)[C@H](Cc2ccccc2)NC(=O)OCc2cncs2)C(C)C)cs1 [Ritonavir]
Antiretroviral drug Concentration [2, 4]: 516 ng/mL and 94 ng/mL
Antiretroviral drug Concentration [2, 5]: 364 ng/mL and 342 ng/mL
Antiretroviral drug Concentration [2, 6]: 462 ng/mL and 575 ng/mL and 246 ng/mL
Antiretroviral drug Concentration [2, 7]: 1585 ng/mL and 564 ng/mL
Antiretroviral drug Concentration [2, 8]: 328 ng/mL and 566 ng/mL
Antiretroviral drug Concentration [2, 9]: 431 ng/mL

COC(=O)N[C@H](C(=O)N[C@@H](Cc1ccccc1)[C@@H](O)CN(Cc1ccc(-c2ccccn2)cc1)NC(=O)[C@@H](NC(=O)OC)C(C)(C)C)C(C)(C)C [Atazanavir]
Antiretroviral drug Concentration [2, 5]: 758 ng/mL
Antiretroviral drug Concentration [2, 7]: 5797 ng/mL

CC(=O)O[C@H]1C(=O)[C@@]2(C)[C@H]([C@H](OC(=O)c3ccccc3)[C@]3(O)C[C@H](OC(=O)[C@H](O)[C@@H](NC(=O)c4ccccc4)c4ccccc4)C(C)=C1C3(C)C)[C@]1(OC(C)=O)CO[C@@H]1C[C@@H]2O [paclitaxel]
median PFS (Kaposi's sarcoma): 39 weeks
response rate (Kaposi's sarcoma): 56%

Nc1ccn([C@@H]2CS[C@H](CO)O2)c(=O)n1 [Lamivudine]
Antiretroviral drug Concentration [2, 5]: 817 ng/mL
Antiretroviral drug Concentration [2, 7]: 512 ng/mL

Nc1nc(NC2CC2)c2ncn([C@H]3C=C[C@@H](CO)C3)c2n1 [Abacavir]
Antiretroviral drug Concentration [2, 5]: 1060 ng/mL
Antiretroviral drug Concentration [2, 7]: 246 ng/mL

O=C1Nc2ccc(Cl)cc2[C@@](C#CC2CC2)(C(F)(F)F)O1 [Efavirenz]
Antiretroviral drug Concentration [2, 4]: 4545 ng/mL
Antiretroviral drug Concentration [2, 5]: 3378 ng/mL
Antiretroviral drug Concentration [2, 6]: 4180 ng/mL
Antiretroviral drug Concentration [2, 7]: 3139 ng/mL
Antiretroviral drug Concentration [2, 8]: 6257 ng/mL

C[C@H](Cn1cnc2c(N)ncnc21)OCP(=O)(O)O [Tenofovir]
Antiretroviral drug Concentration ([3]; selumetinib starting dose 50 mg bd): 230 ng/mL
Antiretroviral drug Concentration ([3]; selumetinib starting dose 75 mg bd): 143 ng/mL
Antiretroviral drug Concentration [2, 4]: 133 ng/mL and 15 ng/mL and 90 ng/mL
Antiretroviral drug Concentration [2, 5]: 84 ng/mL and 30 ng/mL and 60 ng/mL and 130 ng/mL and 90 ng/mL
Antiretroviral drug Concentration [2, 6]: 51 ng/mL and 234 ng/mL and 43 ng/mL
Antiretroviral drug Concentration [2, 7]: 123 ng/mL and 46 ng/mL and 239 ng/mL and 40 ng/mL
Antiretroviral drug Concentration [2, 8]: 55 ng/mL
Antiretroviral drug Concentration [2, 9]: 135 ng/mL and 104 ng/mL

Source: PMC11921695 (BMC Cancer, 2025)
